Assay results taken from patent US7902227B2, “C-7 isoxazolinyl quinolone / naphthyridine derivatives useful as antibacterial agents” (Janssen Pharmaceutica NV., priority 2008, dated 2011).
≈ marks a conversion by molar mass, not a printed value.

Experiments:
Type in all cases: cell-based
[1] = tested on: Staphylococcus aureus OC4172; assay: In vitro antibacterial activity (MIC), microdilution broth method (NCCLS), strain A; settings: cation adjusted Mueller-Hinton broth, 35° C., 16-20 hours
Experimental: (§1) Minimal inhibitory concentration (MIC) has been an indicator of in vitro antibacterial activity widely used in the art. The in vitro antimicrobial activity of representative compounds of the present invention was determined by the microdilution broth method following the test method from the National Committee for Clinical Laboratory Standards (NCCLS). This method is described in the NCCLS Document M7-A4, Vol. 17, No. 2, “Methods for Dilution Antimicrobial Susceptibility Test for Bacteria that Grow Aerobically—Fourth Edition”, which is incorporated herein by reference.
(§2) In this method two-fold serial dilutions of drug in cation adjusted Mueller-Hinton broth are added to wells in microdilution trays. The test organisms are prepared by adjusting the turbidity of actively growing broth cultures so that the final concentration of test organism after it is added to the wells is approximately 5×10^4 CFU/well.
(§3) Following inoculation of the microdilution trays, the trays are incubated at 35° C. for 16-20 hours and then read. […] The amount of growth in the wells containing the test compound is compared with the amount of growth in the growth-control wells (no test compound) used in each tray. As set forth in Table 4, representative compounds of the present invention were tested against a variety of pathogenic bacteria resulting in a range of activities depending on the organism tested.

[2] = tested on: strain B, fluoroquinolone-resistant clinical isolate of Streptococcus pneumoniae; assay: In vitro antibacterial activity (MIC), microdilution broth method (NCCLS), strain B; settings: read-out: In vitro Antibacterial Activity MIC, B
Experimental: as §1, §2, §3

[3] = tested on: strain C, fluoroquinolone-resistant clinical isolate of Streptococcus pneumoniae; assay: In vitro antibacterial activity (MIC), microdilution broth method (NCCLS), strain C; settings: read-out: In vitro Antibacterial Activity MIC, C
Experimental: as §1, §2, §3

[4] = tested on: strain D, fluoroquinolone-resistant clinical isolate of Streptococcus pneumoniae; assay: In vitro antibacterial activity (MIC), microdilution broth method (NCCLS), strain D; settings: read-out: In vitro Antibacterial Activity MIC, D
Experimental: as §1, §2, §3

[5] = tested on: Streptococcus pneumoniae ATCC 49619; assay: In vitro antibacterial activity (MIC), microdilution broth method (NCCLS), strain E; settings: ATCC49619, 35° C., 16-20 hours
Experimental: as §1, §2, §3

SMILES | MIC [1] [µg/mL] | MIC [2] [µg/mL] | MIC [3] [µg/mL] | MIC [4] [µg/mL] | MIC [5] [µg/mL]
O=C(O)c1cn(-c2ccc(F)cc2F)c2nc(N3CC4ON=C(c5ccc(C(F)(F)F)nc5)C4C3)c(F)cc2c1=O (centres unmarked) [ID No. 103, 1-(2,4-Difluoro-phenyl)-6-fluoro-4-oxo-7-[3-(6-trifluoromethyl-pyridin-3-yl)-3a,4,6,6a-tetrahydro-pyrrolo[3,4-d]isoxazol-5-yl]-1,4-dihydro-[1,8]naphthyridine-3-carboxylic acid] | 0.25 (≈ 0.434 µM) | 8 (≈ 13.9 µM) | > 16 | 4 (≈ 6.95 µM) | 2 (≈ 3.48 µM)
O=C(O)c1cn(-c2ccc(F)cc2F)c2nc(N3CC4ON=C(c5ccccn5)C4C3)c(F)cc2c1=O (centres unmarked) [ID No. 104, 1-(2,4-Difluoro-phenyl)-6-fluoro-4-oxo-7-(3-pyridin-2-yl-3a,4,6,6a-tetrahydro-pyrrolo[3,4-d]isoxazol-5-yl)-1,4-dihydro-[1,8]naphthyridine-3-carboxylic acid] | 0.06 (≈ 0.118 µM) | 0.5 (≈ 0.985 µM) | 2 (≈ 3.94 µM) | 4 (≈ 7.88 µM) | 1 (≈ 1.97 µM)
O=C(O)c1cn(-c2ccc(F)cc2F)c2nc(N3CC4ON=C(c5cccnc5)C4C3)c(F)cc2c1=O (centres unmarked) [ID No. 105, 1-(2,4-Difluoro-phenyl)-6-fluoro-4-oxo-7-(3-pyridin-3-yl-3a,4,6,6a-tetrahydro-pyrrolo[3,4-d]isoxazol-5-yl)-1,4-dihydro-[1,8]naphthyridine-3-carboxylic acid] | 0.06 (≈ 0.118 µM) | 0.5 (≈ 0.985 µM) | 2 (≈ 3.94 µM) | 2 (≈ 3.94 µM) | 1 (≈ 1.97 µM)
CCOC(=O)C1=NOC2CN(c3nc4c(cc3F)c(=O)c(C(=O)O)cn4-c3ccc(F)cc3F)CC12 (centres unmarked) [ID No. 106, 1-(2,4-Difluoro-phenyl)-7-(3-ethoxycarbonyl-3a,4,6,6a-tetrahydro-pyrrolo[3,4-d]isoxazol-5-yl)-6-fluoro-4-oxo-1,4-dihydro-[1,8]naphthyridine-3-carboxylic acid] | 0.12 (≈ 0.239 µM) | > 16 | > 16 | > 16 | 8 (≈ 15.9 µM)
O=C(O)c1cn(-c2ccc(F)cc2F)c2nc(N3CC4ON=C(CO)C4C3)c(F)cc2c1=O (centres unmarked) [ID No. 107, 1-(2,4-Difluoro-phenyl)-6-fluoro-7-(3-hydroxymethyl-3a,4,6,6a-tetrahydro-pyrrolo[3,4-d]isoxazol-5-yl)-4-oxo-1,4-dihydro-[1,8]naphthyridine-3-carboxylic acid] | 0.12 (≈ 0.261 µM) | > 16 | > 16 | > 16 | 2 (≈ 4.34 µM)
O=C(O)c1cn(-c2ccc(F)cc2F)c2nc(N3CC4ON=C(CN5C(=O)c6ccccc6C5=O)C4C3)c(F)cc2c1=O (centres unmarked) [ID No. 108, 1-(2,4-Difluoro-phenyl)-7-[3-(1,3-dioxo-1,3-dihydro-isoindol-2-ylmethyl)-3a,4,6,6a-tetrahydro-pyrrolo[3,4-d]isoxazol-5-yl]-6-fluoro-4-oxo-1,4-dihydro-[1,8]naphthyridine-3-carboxylic acid] | 0.25 (≈ 0.424 µM) | > 16 | > 16 | > 16 | 8 (≈ 13.6 µM)
COc1ccc(C2=NOC3CN(c4nc5c(cc4F)c(=O)c(C(=O)O)cn5C4CC4)CC23)cn1 (centres unmarked) [ID No. 111, 1-Cyclopropyl-6-fluoro-7-[3-(6-methoxypyridin-3-yl)-3a,4,6,6a-tetrahydro-pyrrolo[3,4-d]isoxazol-5-yl]-4-oxo-1,4-dihydro-[1,8]naphthyridine-3-carboxylic acid] | 0.03 (≈ 0.0645 µM) | 8 (≈ 17.2 µM) | 4 (≈ 8.59 µM) | 2 (≈ 4.3 µM) | 0.5 (≈ 1.07 µM)
O=C(O)c1cn(C2CC2)c2nc(N3CC4ON=C(c5ccc(C(F)(F)F)nc5)C4C3)c(F)cc2c1=O (centres unmarked) [ID No. 112, 1-Cyclopropyl-6-fluoro-4-oxo-7-[3-(6-trifluoromethyl-pyridin-3-yl)-3a,4,6,6a-tetrahydro-pyrrolo[3,4-d]isoxazol-5-yl]-1,4-dihydro-[1,8]naphthyridine-3-carboxylic acid] | 0.25 (≈ 0.497 µM) | 16 (≈ 31.8 µM) | > 16 | 8 (≈ 15.9 µM) | 2 (≈ 3.97 µM)
O=C(O)c1cn(C2CC2)c2nc(N3CC4ON=C(c5ccccn5)C4C3)c(F)cc2c1=O (centres unmarked) [ID No. 113, 1-Cyclopropyl-6-fluoro-4-oxo-7-(3-pyridin-2-yl-3a,4,6,6a-tetrahydro-pyrrolo[3,4-d]isoxazol-5-yl)-1,4-dihydro-[1,8]naphthyridine-3-carboxylic acid] | 0.06 (≈ 0.138 µM) | 16 (≈ 36.7 µM) | 2 (≈ 4.59 µM) | 4 (≈ 9.19 µM) | 1 (≈ 2.3 µM)
O=C(O)c1cn(C2CC2)c2nc(N3CC4ON=C(c5ccncc5)C4C3)c(F)cc2c1=O (centres unmarked) [ID No. 115] | 0.06 (≈ 0.138 µM) | 16 (≈ 36.7 µM) | 8 (≈ 18.4 µM) | 4 (≈ 9.19 µM) | 1 (≈ 2.3 µM)
CCOC(=O)C1=NOC2CN(c3nc4c(cc3F)c(=O)c(C(=O)O)cn4C3CC3)CC12 (centres unmarked) [ID No. 116, 1-Cyclopropyl-7-(3-ethoxycarbonyl-3a,4,6,6a-tetrahydro-pyrrolo[3,4-d]isoxazol-5-yl)-6-fluoro-4-oxo-1,4-dihydro-[1,8]naphthyridine-3-carboxylic acid] | 0.12 (≈ 0.279 µM) | > 16 | > 16 | > 16 | 4 (≈ 9.29 µM)
O=C(O)c1cn(C2CC2)c2nc(N3CC4ON=C(CO)C4C3)c(F)cc2c1=O (centres unmarked) [ID No. 117, 1-Cyclopropyl-6-fluoro-7-(3-hydroxymethyl-3a,4,6,6a-tetrahydro-pyrrolo[3,4-d]isoxazol-5-yl)-4-oxo-1,4-dihydro-[1,8]naphthyridine-3-carboxylic acid] | 0.5 (≈ 1.29 µM) | 16 (≈ 41.2 µM) | 16 (≈ 41.2 µM) | 16 (≈ 41.2 µM) | 8 (≈ 20.6 µM)
O=C(O)c1cn(C2CC2)c2nc(N3CC4ON=C(CN5C(=O)c6ccccc6C5=O)C4C3)c(F)cc2c1=O (centres unmarked) [ID No. 118, 1-Cyclopropyl-7-[3-(1,3-dioxo-1,3-dihydro-isoindol-2-ylmethyl)-3a,4,6,6a-tetrahydro-pyrrolo[3,4-d]isoxazol-5-yl]-6-fluoro-4-oxo-1,4-dihydro-[1,8]naphthyridine-3-carboxylic acid] | 2 (≈ 3.86 µM) | > 16 | > 16 | > 16 | 16 (≈ 30.9 µM)
CCOC(=O)C1=NOC2CN(c3c(F)cc4c(=O)c(C(=O)O)cn(C5CC5)c4c3OC)CC12 (stereo not drawn) [ID No. 124, 7-[cis-3-(3-Ethoxycarbonyl)-3a,4,6,6a-tetrahydropyrrolo[3,4-d]isoxazol-5-yl]-1-cyclopropyl-8-methoxy-6-fluoro-4-oxo-1,4-dihydroquinoline-3-carboxylic acid] | 0.25 (≈ 0.544 µM) | > 16 | > 16 | > 16 | 8 (≈ 17.4 µM)
C[C@H]1COc2c(N3CC4ON=C(c5ccccn5)C4C3)c(F)cc3c(=O)c(C(=O)O)cn1c23 (some centres unmarked) [ID No. 129] | 0.06 (≈ 0.133 µM) | > 16 | 16 (≈ 35.5 µM) | 4 (≈ 8.88 µM) | 1 (≈ 2.22 µM)
CCOC(=O)C1=NOC2CN(c3c(F)cc4c(=O)c(C(=O)O)cn5c4c3OC[C@@H]5C)CC12 (stereo partly drawn) [ID No. 131, 7-[cis-3-(ethoxycarbonyl)-3a,4,6,6a-tetrahydropyrrolo[3,4-d]isoxazol-5-yl]S-(−)-9,10-difluoro-2,3-dihydro-3-methyl-7-oxo-7H-pyrido-[1,2,3-de][1,4]-benzoxazine-6-carboxylic acid] | 1 (≈ 2.25 µM) | > 16 | > 16 | > 16 | 16 (≈ 35.9 µM)
